Data reported in patent publication US20200341014A1, “PD Marker of Hepatocyte Growth Factor (HGF)” (EISAI R&D MANAGEMENT CO., LTD., priority 2016, published 2020).

Columns and labels:
[1] = test system: ApoA4 mRNA; assay: Real-time PCR of liver ApoA4 mRNA in mice administered rh-HGF and c-Met inhibitor (Example 2); type: in vivo, mouse; details: FIG. 2
Description: (§1) To BALB/cAnNCrlCrlj male 6 weeks-old mice (CHARLES RIVER JAPAN), c-Met inhibitor PF-04217903 (50 mg/kg) (Selleck Chemicals #S1094, lot. 05) or vehicle (5% DMSO, 10% Tween80, 6.7 mmol/L aqueous hydrochloric acid solution) was orally administered at a dose of 10 mL/kg, and after 1 hour, rh-HGF (0.5, 1.5, 5.0, or 15 mg/kg) or PBS was intravenously administered. […] After euthanization, hepatic tissue was collected and immersed in RNA later (Ambion, #AM7021). Serum was collected from the blood collected.
From the harvested liver, total RNA was purified with TRIZOL Reagent (Invitrogen, #15596-018), RNeasy Mini Kit (QIAGEN, #74104), and RNase-Free DNase set (QIAGEN, #79254), and RNA concentration was measured by absorbance.
Quantification of ApoA4 mRNA by real-time PCR method was carried out according to Example 1.
(§2) With the results of ApoA4 mRNA quantification, Dunnett's multiple comparison test was carried out between the control and the rh-HGF administration groups.

[2] = test system: ApoA4 protein; assay: Western blot quantification of serum ApoA4 protein in mice administered rh-HGF and c-Met inhibitor (Example 2); type: in vivo, mouse; details: FIG. 3
Description: as §1
Using the above serum, ApoA4 protein was quantified by Western blot method. To the serum diluted 200-folds with PBS (−) (Wako), ¼ volume of the electrophoresis buffer solution (313 mM Tris-HCl (pH 6.8), 10% SDS, 30% Glycerol, 0.2 mg/mL Bromo-phenol blue, and 25% 2-Mercaptoethnol) was added (the final dilution of the serum will be 250-folds), and this was subjected to heat treatment at 95° C. for 3 minutes. […] After washing three times with the above wash solution, chemiluminescence solution SuperSignal West Dura Extended Duration Substrate (Thermo Scientific) was added to allow luminescence, and ApoA4 protein was detected with LAS-4000 (FUJIFILM).
For the results of serum ApoA4 protein quantification, Dunnett's multiple comparison test was carried out between the control and the rh-HGF administration groups.

[3] = test system: human ApoA4 mRNA; assay: Real-time PCR of human ApoA4 mRNA in human primary culture hepatocytes treated with rh-HGF; type: cell-based; details: FIG. 5
Description: (§3) Human primary culture hepatocytes seeded in a 24-well plate (3.8×10^5 cells/well, Biopredic International, #HEP220-MW24) were cultured for three days in Incubation Medium (product name: Biopredic International, #MIL214), then c-Met inhibitor PF-04217903 (final concentration 100 nmol/L) (Selleck Chemicals, #S1094, lot. 05) or vehicle (DMSO) was added, and after 1 hour, rh-HGF (final concentration 100, 300, or 1000 ng/mL) or (Incubation Medium) for the control group (Control) was added.
From hepatocytes 24 hours after addition of rh-HGF, total RNA was purified with RNeasy Mini Kit (QIAGEN, #74104) and RNase-Free DNase set (QIAGEN, #79254), and RNA concentration was measured by absorbance. The purified total RNA was reverse transcripted using High-Capacity cDNA Reverse Transcription Kit with RNase Inhibitor (Applied Biosystems, #4374966) to create cDNA. With the cDNA obtained as the template, the amount of ApoA4 mRNA expressed was examined by real-time PCR method. 18S rRNA was used as the internal control for examination. […]
as §2

[4] = test system: human ApoA4 protein; assay: Western blot quantification of human ApoA4 protein in human hepatocyte culture supernatant; type: cell-based; details: FIG. 6
Description: as §3
Using hepatocyte culture supernatant (the same culture supernatant as that of cells for preparation of mRNA) 24 Hours after addition of rh-HGF, ApoA4 protein was quantified by Western blot method. […] After washing three times with the above wash solution, chemiluminescence solution SuperSignal West Dura Extended Duration Substrate (Thermo Scientific) was added to allow luminescence, and ApoA4 protein was detected with LAS-4000 (FUJIFILM).
With the quantification results of ApoA4 protein, Dunnett's multiple comparison test was carried out between the control and the rh-HGF administration groups.

[5] = test system: ApoA4 gene expression; assay: DNA microarray analysis of hepatic tissue of healthy mice administered rh-HGF; type: in vivo, mouse
Description: (§4) Using hepatocyte growth factor activator recombinantly expressed in Chinese hamster ovary (CHO) cells, human HGF recombinantly expressed in CHO cells were activated to obtain rh-HGF. BALB/cAnNCrlCrlj male 6 weeks-old mice (CHARLES RIVER JAPAN) were intravenously administered with Dulbecco's Phosphate buffered saline (PBS) (Wako, #045-29795) or rh-HGF (1.5 mg/kg). […] After euthanization, hepatic tissue was collected and immersed in RNA later (Ambion, #AM7021).
From the harvested liver, total RNA was purified with TRIZOL Reagent (Invitrogen, #15596-018), RNeasy Mini Kit (QIAGEN, #74104), and RNase-Free DNase set (QIAGEN, #79254). RNA concentration was measured by absorbance, and then quality check was carried out with RNA 6000 Nano Assay Kit (Agilent Technologies, #5067-1511) using 2100 Bioanalyzer (Agilent Technologies).
The DNA microarray used was SurePrint G3 mouse GE 8×60K (Agilent Technologies, #G4852A). […] Among this, as molecules that may appear to possibly exist as soluble proteins, those having information of “Extracellular” or “Plasma membrane” in Gene Ontology annotation were extracted.

[6] = test system: ApoA4 mRNA; assay: Real-time PCR of ApoA4 mRNA from liver of healthy mice administered rh-HGF (Example 1); type: in vivo, mouse; details: rh-HGF 1.5 mg/kg intravenous, 8 and 24 hr; FIG. 1
Description: as §4
The same RNA as the sample employed for DNA microarray was reverse transcripted using High-Capacity cDNA Reverse Transcription Kit with RNase Inhibitor (Applied Biosystems, #4374966) to create cDNA. With the cDNA obtained as the template, the amount of ApoA4 mRNA expressed was examined by real-time PCR method. Hprt mRNA was used as the internal control for examination. For PCR reaction, PCR amplification reaction was carried out with TaqMan Fast Advanced Master Mix (Applied Biosystems, #4444557) and TaqMan Assay (ApoA4: Mm00431814_m1, Hprt: Mm03024075_m1, Applied Biosystems) and using ViiA7 Real-time PCR System (Applied Biosystems). […]
With the results of ApoA4 mRNA quantification, Dunnett's multiple comparison test was carried out between the control and the rh-HGF administration groups (FIG. 1).

[7] = test system: Jo2 liver failure model; assay: Severity of hepatopathy (AST, ALT, PT) in Jo2 liver failure model; type: in vivo, mouse; details: Jo2 liver failure mice, rh-HGF into tail vein 1 hour before anti-Fas MAb, 5 hours after MAb; FIG. 4
Description: To BALB/cAnNCrlCrlj male 6 weeks-old mice (CHARLES RIVER JAPAN), 0.23 mg/kg of anti-Fas monoclonal antibody (clone name: Jo2, BD Pharmingen, #554254, lot#3269634) was administered once into the tail vein to create an acute liver failure model. To this model, rh-HGF dissolved in PBS was administered into the tail vein at 0.15, 1.5, or 15 mg/kg 1 hour before administration of anti-Fas monoclonal antibody. For the control group (Control), PBS was administered into the tail vein. Five hours after the administration of anti-Fas monoclonal antibody, mice were retained under anesthesia by 3% isoflurane inhalation, blood was collected from the vein located behind the jaw bone, and Prothrombin time (PT) was measured with CoaguChek XS (Roche-diagnostics, #ES350009) and PT Test strips (Roche-diagnostics, #ES350054). […] The measurement of Aspartate Aminotransferase (AST) and Alanine transaminase (ALT) in the serum was each performed with L-type Wako AST·J2 (Wako) kit and L-type Wako ALT·J2 (Wako) kit and an automatic analysis device (Hitachi 7180 Automatic Analyzer, Hitachi High-Technologies). With the measurement results of PT, AST, ALT, and serum ApoA4 protein, Dunnett's multiple comparison test was carried out between the control and the rh-HGF administration groups (FIG. 4).

[8] = test system: ApoA4 protein; assay: Western blot quantification of serum ApoA4 protein in Jo2 liver failure mice; type: in vivo, mouse; details: rh-HGF at 1.5, 5, or 15 mg/kg, FIG. 4
Description: To BALB/cAnNCrlCrlj male 6 weeks-old mice (CHARLES RIVER JAPAN), 0.23 mg/kg of anti-Fas monoclonal antibody (clone name: Jo2, BD Pharmingen, #554254, lot#3269634) was administered once into the tail vein to create an acute liver failure model. […] For the control group (Control), PBS was administered into the tail vein.
Quantification of serum ApoA4 protein was carried out according to Example 2.
With the measurement results of PT, AST, ALT, and serum ApoA4 protein, Dunnett's multiple comparison test was carried out between the control and the rh-HGF administration groups (FIG. 4).

[9] = PF-04217903 50 mg/kg oral 1 hour before rh-HGF
[10] = PF-04217903 100 nmol/L added 1 hour before rh-HGF
[11] = rh-HGF 0.5-15 mg/kg intravenous, 24 hours

Compound: OCCn1cc(-c2cnc3nnn(Cc4ccc5ncccc5c4)c3n2)cn1 [PF-04217903, reference compound]
- Effect on rh-HGF induction of liver ApoA4 mRNA expression [1, 9]: significantly inhibited
- Effect on rh-HGF induction of serum ApoA4 protein [2, 9]: inhibited
- Effect on rh-HGF enhancement of human ApoA4 mRNA expression [3, 10]: inhibited
- Effect on rh-HGF enhancement of extracellular release of human ApoA4 protein [4, 10]: inhibited

Compound: rh-HGF: human HGF recombinantly expressed in CHO cells, activated with hepatocyte growth factor activator recombinantly expressed in CHO cells
- Signal value (average) 8 hours, ApoA4 (A_51_P327491) ([5]; liver, 8 hr after rh-HGF 1.5 mg/kg intravenous): 15738
- Change in expression (vs 0 hours) 8 hours Ratio, ApoA4 ([5]; liver, 8 hr after rh-HGF 1.5 mg/kg intravenous, vs PBS group): 6.46
- Signal value (average) 24 hours, ApoA4 (A_51_P327491) ([5]; liver, 24 hr after rh-HGF 1.5 mg/kg intravenous): 13453
- Change in expression (vs 0 hours) 24 hours Ratio, ApoA4 ([5]; liver, 24 hr after rh-HGF 1.5 mg/kg intravenous, vs PBS group): 5.52
- ApoA4 expression in liver (DNA microarray) ([5]; rh-HGF 1.5 mg/kg intravenous vs PBS only (Group 1)): enhancement of expression
- ApoA4 mRNA expression in liver (real-time PCR, Hprt internal control) [6]: strongly enhanced
- ApoA4 mRNA expression in the liver [1, 11]: significantly induced/enhanced
- ApoA4 protein expression in the serum [2, 11]: induction of ApoA4 protein expression
- Effect on elevation of ALT [7]: strongly inhibited
- Effect on elevation of AST [7]: strongly inhibited
- Effect on extension of PT (Prothrombin time) [7]: strongly inhibited
- Blood ApoA4 protein value [8]: significant elevation
- Human ApoA4 mRNA expression ([3]; human primary culture hepatocytes, rh-HGF 100, 300 or 1000 ng/mL, 24 hours): strongly enhanced
- Extracellular release of human ApoA4 protein ([4]; human primary culture hepatocytes, culture supernatant, rh-HGF 100, 300 or 1000 ng/mL, 24 hours): strongly enhanced
